Experimental data reported in patent US5635379A, “D-2-alkyl-tryptophan and peptides containing same” (Deghenghi; Romano, priority 1990, dated 1997).

Legend:
plasma testosterone = format: in vivo, Beagle dogs
Excerpt: After an initial flare-up, plasma testosterone fell below castration levels after approximately 10 days, and was maintained for approximately 180 days.

[1] = test system: pituitary cell monolayers; assay: GH-releasing activity in pituitary cell culture (monolayers); format: cell-based, Sprague Dawley rats; settings: for GH in medium: 2 hours incubation
Procedure: (§1) Male Sprague Dawley rats (Charles River, Calco, Italy) of 2-3 months of age were used. Rats were housed at 22 +2° C., with lighting cycle of 14 h light: 10 h dark (lights on from 06.00 to 20.00 h), at least 10 days before starting the experiments. A standard dry diet and water were available ad libitum.
Pituitary tissue used for cell dissociation included only the anterior lobe. Briefly, pituitary glands were collected in sterile F-10 medium and after cutting into small fragments incubated twice (30 minutes each) at 37° C. in F-10 medium containing 6% fetal calf serum and collagenase (2.5 mg/ml) (Boehringer, Mannheim GmbH, Germany). Fragments were then washed in Dulbecco's PBS, Ca^2+ and Mg^2+ free medium and mechanically dissociated. Single cell suspension was planted onto 24-well (2×10^5 cells/well) culture plates. The cells were incubated in F-10 medium supplemented with 10% horse serum, 4% fetal calf serum and gentamycin (25 μg/ml), in a humidified atmosphere of 5% CO2 and 95% air at 37° C.
After 3 days, the medium was removed and the cells washed twice with serum free F-10, then incubated with 1 ml of F-10 containing 0.1% BSA only, or with added various concentrations of synthetic peptides.
After incubation for 2 h at 37° C., media were collected and stored frozen at -20° C. until assayed for measurement of GH content.
(§2) Medium and plasma GH was measured by radioimmunoassay using materials supplied by the NIADDK Bethesda, Md. Values were expressed in term of NIASSK-rat-GH-RP-2 standard (potency 2 IU/ml), as ng/ml of medium or plasma.
(§3) The minimum detectable value of rat was 1.0 ng/ml; intra-assay variability was 6%. To avoid inter-assay variation, samples from each experiment were assayed simultaneously.

GH release [2] = assay: GH-releasing activity i.v. in male rats anesthetized with ketamine and xilazine; format: in vivo, Sprague Dawley rats
Procedure: as §1
(§4) Between 09.00-10.00 h rats were anesthetized with ketamine (58 mg/kg, Inoketam, VIRBAC, Milano) and xilazine (12 mg/kg, Rompun, Bayer, Milano). Thirty minutes later, a blood sample ([…]) was withdrawn from the exposed jugular vein, peptides were injected intravenously or subcutaneously, and further blood samples were collected 10, 20 and 30 minutes later.
as §2, §3

GH release [3] = assay: GH response in conscious, freely-moving rats after antiserum pretreatment and i.v. peptide; format: in vivo; settings: i.v. 25 μg/kg peptide, pooled over antiserum pretreatments
Procedure: Sixty male rats were prepared with indwelling venous catheters under ether anesthesia three days before experimentation. On the day of experimentation, all animals were given an iv heparin injection (100 IU; 0630 h). At 0700 h, animals were treated with 0.5 ml of either normal serum (control-as), somatostatin antiserum (somatostatin-as; 0.25 ml+0.25 ml saline), growth hormone-releasing hormone antiserum (GHRH-as; 0.25 ml+0.25 ml saline), or both somatostatin antiserum and growth hormone-releasing hormone antiserum (0.25 ml somatostatin-as+0.25 ml GHRH-as). Blood sampling began […] after antiserum pretreatment, with blood samples collected every 20 minutes for three hours. After the 180 minute sample (1100 h), animals were treated iv with 25 μg/kg of either Hexarelin or GHRP-6. Blood samples were then collected at 5, 10, 15, 20 30, 40, and 60 minutes after peptide treatment. All samples were centrifuged immediately and the plasma frozen until assayed. The peak GH response to Hexarelin and GHRP-6 as well as the area under the response curves (AUCs) for the thirty minutes following peptide injection were calculated. Data were subjected to repeated measures analysis of variance and are expressed as mean ±SEM.

GH release [4] = assay: GH release in pentobarbital-anesthetized rats, s.c.; format: in vivo, Sprague Dawley rats
Procedure: Male Sprague Dawley rats weighing 225-250 g were divided in groups of five animals each. Rats were anesthetized with Nembutal injected intraperiteonally at 50 mg/kg, fifteen minutes prior to the first blood withdrawal taken over heparin by cardiac puncture (for determination of basal GH).
Subcutaneous injections of either HEXARELIN or GHRP-6 were given immediately after the first blood collection, and additional blood samples were collected 15 and 40 minutes later.
Measurement of rat GH was performed by a standard double antibody radioimmunoassay with reagents supplied by the National Pituitary Agency and the National Institute of Arthritis, Diabetes, and Digestive and Kidney Diseases. The standards used were NIADDK-NIH-rGH-RP-2. Statistical data were obtained with the Student's t Test at a significance level of 5%.

[5] = Acute cardiovascular toxicity in the rat, single i.v. dose, mortality; format: in vivo; settings: observed up to 4 hours
Procedure: These two peptides were also tested for acute cardiovascular toxicity in the rat.
Dosages were calculated on the basis of the declared peptide content in each product, as specified below:
A single dose of HEXARELIN or GHRP-6 was administered to rats in different calendar dates in such a way that each group/dose should be treated in two subsequent days.
For each compound, appropriate amounts of solutions in 0.9% NaCl for injection were prepared just before treatment at the suitable concentrations. The solutions were sterilized by filtration (Millipore filter, pore size 0.22 μm). Owing to the type of the study (acute study) in which formulates were administered just after preparation, stability checks were not performed. Concentration checks were also not performed. The volume of solution injected was maintained constant at 1 ml/Kg.
The intravenous injections were done as a single dose in one vein of the tail with an appropriately gauged sterile, disposable, plastic syringe. The injection rate was about 0.1 ml/sec.
Periodical observations were made up to 4 hours after treatment. Abnormality and mortality were recorded. Body weight was recorded once during pre-trial and on the administration day to calculate the volumes to be injected.

GH release [6] = assay: GH-releasing activity s.c. in male rats anesthetized with ketamine and xilazine; format: in vivo, Sprague Dawley rats
Procedure: as §1, §4, §2, §3

[7] = Stability of D-Trp and D-2-methyl-Trp in 1% solutions, peak area by HPLC; format: physicochemical; settings: pH 2.2 citrate buffer, dark, helium (FIG. 1) and pH 5.4 acetate buffer, oxygen, constant light (FIG. 2)
[8] = PLGA implant rods, 20 or 25% loading (7 or 10 mg), subcutaneous

Pyro-Glu-His-Ser-Tyr-D-2-alkyl-Trp-Leu-Arg-Pro-NHCH2 CH3 [Example 3]
time plasma testosterone was maintained below castration levels (plasma testosterone; [8]): approximately 180 days | time until plasma testosterone fell below castration levels (plasma testosterone; [8]): approximately 10 days | response to stimulation by i.v. administration of the peptide (plasma testosterone; day 145 after implant): absence of response | clinical side effects (plasma testosterone; dog, in vivo, sc): No clinical side effects were observed

GHRP-6 [reference compound]
GH in medium ([1]; 10^-6 M): 510.0 ± 12.0 ng/well | GH in medium ([1]; 10^-7 M): 526.5 ± 19.0 ng/well | GH in medium ([1]; 10^-8 M): 544.2 ± 23.9 ng/well | GH secretion versus basal ([1]; 10^-8 to 10^-6 M, two hours): stimulation of GH secretion over basal secretion | plasma GH (GH release [2]; i.v. 150 μg/kg, 10 min): 394.0 ± 31.0 ng/mL | plasma GH (GH release [2]; i.v. 150 μg/kg, 20 min): 139.3 ± 10.2 ng/mL | plasma GH (GH release [2]; i.v. 150 μg/kg, 30 min): 42.5 ± 4.5 ng/mL | plasma GH (GH release [2]; i.v. 150 μg/kg, time 0 min (before injection)): 30.2 ± 7.8 ng/mL | plasma GH (GH release [2]; i.v. 300 μg/kg, 10 min): 413.6 ± 21.5 ng/mL | plasma GH (GH release [2]; i.v. 300 μg/kg, 20 min): 162.7 ± 22.1 ng/mL | plasma GH (GH release [2]; i.v. 300 μg/kg, 30 min): 38.2 ± 7.7 ng/mL | plasma GH (GH release [2]; i.v. 300 μg/kg, time 0 min (before injection)): 21.9 ± 4.4 ng/mL | plasma GH (GH release [2]; i.v. 600 μg/kg, 10 min): 542.0 ± 38.0 ng/mL | plasma GH (GH release [2]; i.v. 600 μg/kg, 20 min): 195.5 ± 11.0 ng/mL | plasma GH (GH release [2]; i.v. 600 μg/kg, time 0 min (before injection)): 21.2 ± 6.1 ng/mL | Mean GH (GH release [3]): 131 ± 13 ng/mL | Peak GH (GH release [3]): 293 ± 41 ng/mL | GH AUC (GH release [3]; thirty minutes following injection): 4220 ± 665 ng/ml/30 min | POST-DRUG PLASMA GH (GH release [4]; s.c. 25 μg/kg, 0 min (basal)): 41 ± 16 ng/mL | POST-DRUG PLASMA GH (GH release [4]; s.c. 25 μg/kg, 15 min): 222 ± 95 ng/mL | POST-DRUG PLASMA GH (GH release [4]; s.c. 25 μg/kg, 40 min): 110 ± 47 ng/mL | POST-DRUG PLASMA GH (GH release [4]; s.c. 50 μg/kg, 0 min (basal)): 57 ± 39 ng/mL | POST-DRUG PLASMA GH (GH release [4]; s.c. 50 μg/kg, 15 min): 262 ± 58 ng/mL | POST-DRUG PLASMA GH (GH release [4]; s.c. 50 μg/kg, 40 min): 97 ± 44 ng/mL | Dead rats/Total N° of rats per group ([5]; single i.v. dose 2.5 mg/kg): 0/6 | Dead rats/Total N° of rats per group ([5]; single i.v. dose 5.0 mg/kg): 1/6 | Dead rats/Total N° of rats per group ([5]; single i.v. dose 7.5 mg/kg): 2/6 | plasma GH (GH release [6]; s.c. 150 μg/kg, 10 min): 63.1 ± 11.0 ng/mL | plasma GH (GH release [6]; s.c. 150 μg/kg, 20 min): 110.4 ± 18.0 ng/mL | plasma GH (GH release [6]; s.c. 150 μg/kg, 30 min): 77.2 ± 14.0 ng/mL | plasma GH (GH release [6]; s.c. 150 μg/kg, time 0 min (before injection)): 20.0 ± 5.0 ng/mL | plasma GH (GH release [6]; s.c. 300 μg/kg, 10 min): 63.9 ± 12.8 ng/mL | plasma GH (GH release [6]; s.c. 300 μg/kg, 20 min): 123.4 ± 14.6 ng/mL | plasma GH (GH release [6]; s.c. 300 μg/kg, 30 min): 87.7 ± 11.8 ng/mL | plasma GH (GH release [6]; s.c. 300 μg/kg, time 0 min (before injection)): 20.0 ± 6.0 ng/mL | plasma GH (GH release [6]; s.c. 600 μg/kg, 10 min): 93.1 ± 22.3 ng/mL | plasma GH (GH release [6]; s.c. 600 μg/kg, 20 min): 167.1 ± 14.7 ng/mL | plasma GH (GH release [6]; s.c. 600 μg/kg, 30 min): 107.8 ± 9.5 ng/mL | plasma GH (GH release [6]; s.c. 600 μg/kg, time 0 min (before injection)): 18.0 ± 4.0 ng/mL

N[C@H](Cc1c[nH]c2ccccc12)C(=O)O [D-Trp, D-Tryptophan, reference compound]
time the compound is stable in solution (HPLC peak area) [7]: about 20 days

Cc1[nH]c2ccccc2c1C[C@@H](N)C(=O)O [Example 1, 2-methyl-D-tryptophan]
time the compound is stable in solution (HPLC peak area) [7]: ≥ 60 days
